Experiments:
[1] = target: p70S6K (T412E mutant) (Homo sapiens (Human), UniProt P23443, T412E); assay: p70S6K enzyme assay; assay type: biochemical; conditions: 24 μM ATP, 90 min at 25° C., Caliper mobility shift
Experimental: p70S6K inhibitor compounds were diluted and plated in 96 well plates. A reaction mixture including the following components were then added to the compound plate to initiate the enzyme reaction: p70S6K (3 nM, T412E mutant, Millipore) was mixed with 24 μM ATP in an assay buffer containing 100 mM Hepes (pH 7.5), 5 mM MgCl2, 1 mM DTT, 0.015% Brij and 1 μM of the substrate peptide FITC-AHA-[…]-OH (derived from the S6 ribosomal protein sequence, FITC=fluorescein isothiocyanate, AHA=6-aminohexanoic acid). The reaction was incubated for 90 min at 25° C., before the addition of 10 mM EDTA to stop the reaction. The proportion of substrate and product (phosphorylated) peptide was analyzed on a Caliper Life Sciences Lab Chip 3000, using a pressure of −1.4 psi, and upstream and downstream voltages of −3000 and −700, respectively. Product peaks were resolved before substrate peaks on the resulting chromatograms. To assess the inhibitory potential of the compounds, IC50 values were determined, as shown above.

[2] = target: His-AKT (Full Length) (Homo sapiens (Human), UniProt P31749); assay: AKT/PKB kinase assay; assay type: biochemical; conditions: 160 μM ATP, 90 min at 25° C., Caliper mobility shift
Chain of His-AKT (Full Length) (P31749 whole entry): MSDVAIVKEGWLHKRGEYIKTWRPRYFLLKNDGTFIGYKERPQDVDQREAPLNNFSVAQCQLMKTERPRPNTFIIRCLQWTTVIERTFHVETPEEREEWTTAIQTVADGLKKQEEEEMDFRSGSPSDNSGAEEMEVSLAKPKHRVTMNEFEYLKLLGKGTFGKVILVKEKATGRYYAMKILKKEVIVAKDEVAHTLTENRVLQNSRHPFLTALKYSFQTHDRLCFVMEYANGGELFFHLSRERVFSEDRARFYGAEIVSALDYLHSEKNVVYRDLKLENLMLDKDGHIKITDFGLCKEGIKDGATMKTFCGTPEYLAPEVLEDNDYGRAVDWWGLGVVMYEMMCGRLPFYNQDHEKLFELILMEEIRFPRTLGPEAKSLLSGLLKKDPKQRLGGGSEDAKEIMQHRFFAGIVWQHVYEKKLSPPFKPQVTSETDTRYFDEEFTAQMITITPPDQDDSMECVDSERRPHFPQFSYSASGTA
Experimental: In order to measure AKT inhibition in the Caliper Life Sciences LC3000, a TTP Mosquito liquid handling instrument was used to place 125 nl of the appropriate concentration of inhibitor in 100% DMSO (for a dose response curve calculation) into each well of a 384-well plate. To this reaction, the following components were added to a final volume of 12.5 μl: • 0.1 ng/μl His-AKT (Full Length) (Invitrogen, Part # P2999, Lot #641228C); • 160 μM ATP (Fluka, 02055); • 1 mM DTT (Sigma, D0632); • 1 mM MgCl2 (Sigma, M1028); • 1 μM substrate peptide (sequence FITC-AHA-[…]-NH2), synthesized by • Tufts Peptide Synthesis service; • 100 mM HEPES pH 7.5 (Calbiochem, 391338); and • 0.015% Brij-35 (Sigma, B4184).
The reaction was incubated for 90 min at 25° C., and then stopped by the addition of 70 μl of Stop buffer (100 mM HEPES pH 7.5, 0.015% Brij-35, 10 mM EDTA (Sigma, E7889)). The plate was read on a Caliper LC 3000 in an Off-Chip mobility shift assay format, using the following parameters for a 12-sipper chip: screening pressure −2.3 psi, upstream voltage −500, and downstream voltage −3000. These conditions cause unphosphorylated substrate and phosphorylated product peptide to resolve as separate peaks allowing direct measurement of percentage of conversion of substrate to product. The percent conversion was plotted against concentration of inhibitor to produce a sigmoidal dose response curve, from which an IC50 was calculated.

Chain of p70S6K (T412E mutant) (P23443 whole entry T412E): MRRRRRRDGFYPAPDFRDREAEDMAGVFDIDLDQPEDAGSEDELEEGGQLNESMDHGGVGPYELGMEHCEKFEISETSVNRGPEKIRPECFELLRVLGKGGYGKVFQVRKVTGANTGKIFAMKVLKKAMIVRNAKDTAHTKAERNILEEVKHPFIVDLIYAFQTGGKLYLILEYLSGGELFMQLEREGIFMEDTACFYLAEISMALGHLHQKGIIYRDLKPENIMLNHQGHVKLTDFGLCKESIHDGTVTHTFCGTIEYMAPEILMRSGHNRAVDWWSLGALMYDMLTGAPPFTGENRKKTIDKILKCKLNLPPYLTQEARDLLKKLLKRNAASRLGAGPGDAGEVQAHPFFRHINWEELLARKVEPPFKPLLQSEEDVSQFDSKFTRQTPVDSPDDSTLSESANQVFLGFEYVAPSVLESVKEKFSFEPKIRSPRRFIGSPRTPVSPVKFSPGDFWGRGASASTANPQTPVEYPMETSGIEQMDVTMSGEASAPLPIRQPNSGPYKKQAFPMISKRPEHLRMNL

SMILES | IC50 [1] [nM] | IC50 [2] [nM]
CNC[C@@H](Nc1ncnc2c(C(N)=O)ccnc12)c1ccc(F)c(Br)c1 [Compound 28, 4-[(S)-1-(3-Bromo-4-fluoro-phenyl)-2-methylamino-ethylamino]-pyrido[3,2-d]pyrimidine-8-carboxylic Acid Amide] | < 25 | < 25
CCNC[C@@H](Nc1ncnc2c(C(N)=O)ccnc12)c1ccc(C(F)(F)F)c(F)c1 [Compound 29, 4-[(S)-2-Ethylamino-1-(3-fluoro-4-trifluoromethyl-phenyl)-ethylamino]-pyrido[3,2-d]pyrimidine-8-carboxylic Acid Amide] | < 25 | 25 to 100
CCNC[C@@H](Nc1ncnc2c(C(N)=O)ccnc12)c1cc(F)c(OC)cc1F [Compound 31, 4-[(S)-1-(2,5-Difluoro-4-methoxy-phenyl)-2-ethylamino-ethylamino]-pyrido[3,2-d]pyrimidine-8-carboxylic Acid Amide] | 25 to 100 | > 1000
CNC[C@@H](Nc1ncnc2c(C(N)=O)ccnc12)c1cc(F)c(OC)cc1F [Compound 32, 4-[(S)-1-(2,5-Difluoro-4-methoxy-phenyl)-2-methylamino-ethylamino]-pyrido[3,2-d]pyrimidine-8-carboxylic Acid Amide] | < 25 | 101 to 500
CCNC[C@@H](Nc1ncnc2c(C(N)=O)ccnc12)c1ccc(Cl)c(C(F)(F)F)c1 [Compound 33, 4-[(S)-1-(4-Chloro-3-trifluoromethyl-phenyl)-2-ethylamino-ethylamino]-pyrido[3,2-d]pyrimidine-8-carboxylic Acid Amide] | < 25 | 25 to 100
CCNC[C@@H](Nc1ncnc2c(C(N)=O)ccnc12)c1cc(F)cc(C(F)(F)F)c1 [Compound 34, 4-[(S)-2-Ethylamino-1-(3-fluoro-5-trifluoromethyl-phenyl)-ethylamino]-pyrido[3,2-d]pyrimidine-8-carboxylic Acid Amide] | 25 to 100 | 101 to 500
CNC[C@@H](Nc1ncnc2c(C(N)=O)ccnc12)c1cc(F)cc(C(F)(F)F)c1 [Compound 35, 4-[(S)-1-(3-Fluoro-5-trifluoromethyl-phenyl)-2-methylamino-ethylamino]-pyrido[3,2-d]pyrimidine-8-carboxylic Acid Amide] | < 25 | 25 to 100
NC(=O)c1ccnc2c(N[C@H](CN3CCC3)c3ccc(Cl)cc3)ncnc12 [Compound 36, 4-[(S)-2-Azetidin-1-yl-1-(4-chloro-phenyl)-ethylamino]-pyrido[3,2-d]pyrimidine-8-carboxylic Acid Amide] | < 25 | 101 to 500

More lines, now with the values ahead:

IC50 [1] [nM] | IC50 [2] [nM] | SMILES
< 25 | 501 to 1000 | CC(C)c1ccc([C@@H](CN2CCC2)Nc2ncnc3c(C(N)=O)ccnc23)cc1 [Compound 37, 4-[(S)-2-Azetidin-1-yl-1-(4-isopropyl-phenyl)-ethylamino]-pyrido[3,2-d]pyrimidine-8-carboxylic Acid Amide]
< 25 | 25 to 100 | CNC[C@@H](Nc1ncnc2c(C(N)=O)ccnc12)c1ccc(C(F)(F)F)cc1 [Compound 38, 4-[(S)-2-Methylamino-1-(4-trifluoromethyl-phenyl)-ethylamino]-pyrido[3,2-d]pyrimidine-8-carboxylic Acid Amide]
< 25 | 101 to 500 | CNC[C@@H](Nc1ncnc2c(C(N)=O)ccnc12)c1ccc(C(C)C)cc1 [Compound 39, 4-[(S)-1-(4-Isopropyl-phenyl)-2-methylamino-ethylamino]-pyrido[3,2-d]pyrimidine-8-carboxylic Acid Amide]
25 to 100 | > 1000 | CNC[C@@H](Nc1ncnc2c(C(N)=O)nccc12)c1ccc(C(C)C)cc1 [Compound 40, 4-[(S)-1-(4-Isopropyl-phenyl)-2-methylamino-ethylamino]-pyrido[3,4-d]pyrimidine-8-carboxylic Acid Amide]

From patent US9981925B2, “Substituted benzo[d][1,2,3]triazines as p70S6K inhibitors” (Merck Patent GmbH, priority 2012, dated 2018)
